For data set [1], the system named is USH2A gene (F region and R region of exon 13). In words: Indel efficiency of USH2A guide RNA expression cassettes by next generation sequencing (NGS). The class given is cell-based, human. Also noted: Indel efficiency (%) Cas12f1 ver3.0 / Indel efficiency (%) Cas12f1 ver4.0 / Indel efficiency (%) Cas12f1 ver4.1: concentration or dose not given beside the values. Conditions: for Indel efficiency (%) Cas12f1 ver3.0: scaffold Cas12f1 ver3.0 (SEQ ID NO: 315); for Indel efficiency (%) Cas12f1 ver3.0 / Indel efficiency (%) Cas12f1 ver4.0 / Indel efficiency (%) Cas12f1 ver4.1: expression cassette, NGS; for Indel efficiency (%) Cas12f1 ver4.0: scaffold Cas12f1 ver4.0 (SEQ ID NO: 316); for Indel efficiency (%) Cas12f1 ver4.1: scaffold Cas12f1 ver4.1 (SEQ ID NO: 317). The source says: A nucleotide sequence encoding the guide RNA designed based on the protospacer sequence selected in Example 2.1 was constructed into an expression cassette, which was immediately transfected to confirm indel efficiency by next generation sequencing (NGS) without the T7E1 assay. Here, the guide RNA was designed to include a U-rich tail sequence (for example, 5′-U4AU6-3′) at the 3′-end.
To confirm indel efficiency of the guide sequences of Cas12f1, a cassette containing the U6 promoter, scaffold sequence, guide sequence, and U-rich tail sequence (T4AT6) was amplified by PCR and used. The process was performed as follows.
The spacer was selected from the 20mer sequence followed by TTTA or TTTG, which are PAM of Cas12f1, and spacers whose sequences end with T were excluded. In addition, to minimize off-target effects, the spacers were designed using CRISPR RGEN TOOL by classifying them with less than 2 mismatches. In addition, the reverse complement sequence comprising a DR (direct repeat) and U-rich sequence was used as an R primer.
1% agarose gel was prepared, and the size marker and PCR products were added to the gel. Electrophoresis was performed to confirm the amplified size.
After confirming the amplified size, the gel was purified according to Experimental Example 9 to quantify the PCR products.
(§1) The day before transfection, HEK293T and ARPE19-HPV cells (80% confluency) cultured in 100 mm dishes were treated with trypsin to detach from the bottom of the dish. The detached cells were placed in 50 ml of pre-warmed medium (see Experimental Example 15 for its composition) and slowly dissolved with a pipette. 24-well plates were prepared according to the number of samples and repetitions, and 500 μl of cell suspension medium was added to each well (1/100 dilution). Then, incubation was performed overnight in a CO2 incubator at 37° C. until transfection.
(§2) The next day, when the cell confluency reached approximately 70% to 80%, 200 μl of the 500 μl medium per well was removed and the plates were placed in the incubator. 1.5 ml tubes were prepared according to the number of samples, and 200 μl of Opti-MEM was added to each tube. 1.5 μg of Cas12f1 DNA and 0.5 μg of gRNA (or a vector containing nucleic acids encoding Cas12f1 DNA and two gRNAs) were added to the tube containing Opti-MEM, and vortexed for 5 seconds (nucleic acid mixture). Then, the nucleic acid mixture and FuGENE HD were added at a ratio of 1:3, and reaction was allowed to occur at room temperature for 20 minutes (that is, in a case where the nucleic acid mixture was 2 μg, 6 μl of FuGENE HD was administered). The 24-well plate was taken out from the incubator, and 200 μl of the solution containing the nucleic acid mixture and FuGENE HD was gently added along the well wall. After shaking the plate sufficiently in an S shape, it was incubated in a CO2 incubator at 37° C. for 72 hours. After 72 hours, the cells were harvested and gDNA was extracted therefrom according to Experimental Example 8.
(§3) NGS analysis to confirm indel efficiency for the target was performed over a total of three PCR rounds.
The conditions for conducting the first PCR for each region are disclosed in Tables 20 to 29 below.

Another data set relates to USH2A gene. The data set is described as follows: Indel efficiency depending on length of the guide sequence. The class given is cell-based, human. Conditions: highest value by guide length: F16 22mer, FA12 20mer, R19 24mer, R40 20mer; ver4.1 scaffold for F16, FA12, ver4.0 for R19, R40.
From the text: Each guide sequence (F16, FA12, R19, R40) selected through Examples 2 and 3 was modified to have a guide sequence of 19- to 25-mer length based on the PAM adjacent to the protospacer sequence, and vectors expressing the same were produced, respectively, to compare the indel efficiency depending on a length of the guide sequence. As for the scaffold sequence, Cas12f1 ver4.1 was used for F16 and FA12, and Cas12f1 ver4.0 was used for R19 and R40, as selected in Example 2.2.
as §1, §2, §3

For the molecule “UAUAGAAAUACCUAGAAUUG (expressed or natural sequence) [GUIDE-USH2A-R10]”, in data set [1], the “Indel efficiency (%) Cas12f1 ver3.0” value came to 1.65% and the “Indel efficiency (%) Cas12f1 ver4.0” value is reported as 1.20%.
As to “ACUGUGUAGGAGACAAAGGA (expressed or natural sequence) [GUIDE-USH2A-R36]”, the “Indel efficiency (%) Cas12f1 ver4.0” value in data set [1] was determined as 3.06%.
On to “UAAUUCUACCACCAGCCACA (expressed or natural sequence) [GUIDE-USH2A-R26]”, for which, in data set [1], the “Indel efficiency (%) Cas12f1 ver4.0” value is given as 6.41%.
As for “CUUGCCAGAGAAGGAGUAGA (expressed or natural sequence) [GUIDE-USH2A-R19]”, in data set [1], the “Indel efficiency (%) Cas12f1 ver3.0” value was determined as 26.08%, the “Indel efficiency (%) Cas12f1 ver4.0” value is 27.24% and the “Indel efficiency (%) Cas12f1 ver4.1” value is reported as 9.48%.
Turning to “GGGUGAGAACAUUUAAGAUC (expressed or natural sequence) [GUIDE-USH2A-F15]”, the “Indel efficiency (%) Cas12f1 ver3.0” value in data set [1] was determined as 0.55%.
Turning to “GCAUUGGUCAGUGUGUAAGA (expressed or natural sequence) [GUIDE-USH2A-R22]”, in data set [1], the “Indel efficiency (%) Cas12f1 ver3.0” value turned out to be 6.32%, the “Indel efficiency (%) Cas12f1 ver4.0” value worked out at 16.03% and the “Indel efficiency (%) Cas12f1 ver4.1” value was found to be 15.79%.
In the same order, the values of “UAAUGUGUACAUAUAUCAAA (expressed or natural sequence) [GUIDE-USH2A-F16]” are 4.19%, 5.87% and 10.78%.
For the molecule “UAAUGUGUACAUAUAUCAAAAC (expressed or natural sequence) [GUIDE-USH2A-F16-22 mer]”, in the data set on USH2A gene, the indel efficiency was 73%.
As to “AUUAUACCUUCGUGAAGCUG (expressed or natural sequence) [GUIDE-USH2A-F17]”, in data set [1], the “Indel efficiency (%) Cas12f1 ver3.0” value was determined as 0.02%, the “Indel efficiency (%) Cas12f1 ver4.0” value was 0.02% and the “Indel efficiency (%) Cas12f1 ver4.1” value is on record as 0.18%.
As for “AAUAUGCCAUACAUAUUCC (expressed or natural sequence) [GUIDE-USH2A-FA20]”, in data set [1], the “Indel efficiency (%) Cas12f1 ver3.0” value came out at 2.78%, the “Indel efficiency (%) Cas12f1 ver4.0” value is 0.58% and the “Indel efficiency (%) Cas12f1 ver4.1” value stood at 1.03%.
As to “UCCAUAUAUAUACAUAUAUA (expressed or natural sequence) [GUIDE-USH2A-FA12]”, in data set [1], the “Indel efficiency (%) Cas12f1 ver3.0” value is 4.61% and the “Indel efficiency (%) Cas12f1 ver4.1” value came to 1.29%. In addition, in the data set with USH2A gene, the indel efficiency amounted to 72.19%.
For the molecule “UUUCUUUGCCUUGUAAUACC (expressed or natural sequence) [GUIDE-USH2A-F24]”, in data set [1], the “Indel efficiency (%) Cas12f1 ver3.0” value was 0.04% and the “Indel efficiency (%) Cas12f1 ver4.0” value turned out to be 0.19%.
Regarding “UGUUCGUAUCAUCUGCAGUA (expressed or natural sequence) [GUIDE-USH2A-F03]”, in data set [1], the “Indel efficiency (%) Cas12f1 ver3.0” value stood at 4.88%, the “Indel efficiency (%) Cas12f1 ver4.0” value is on record as 5.89% and the “Indel efficiency (%) Cas12f1 ver4.1” value worked out at 9.89%.
As to “AGAGUAAGAUUGGCCCCCUA (expressed or natural sequence) [GUIDE-USH2A-F05]”, in data set [1], the “Indel efficiency (%) Cas12f1 ver3.0” value is 0.64%, the “Indel efficiency (%) Cas12f1 ver4.0” value is 1.48% and the “Indel efficiency (%) Cas12f1 ver4.1” value turned out to be 4.83%.
As for “CUUAGAAAGAAGGAUGUAUA (expressed or natural sequence) [GUIDE-USH2A-R40]”, in data set [1], the “Indel efficiency (%) Cas12f1 ver4.0” value is 21.35% and the “Indel efficiency (%) Cas12f1 ver4.1” value is listed as 8.07%. This molecule had an indel efficiency with USH2A gene of 73.99%.
“CUUGCCAGAGAAGGAGUAGAACAA (expressed or natural sequence) [GUIDE-USH2A-R19-24 mer]” returned an indel efficiency in the data set with USH2A gene of 83%.
On to “ACAGUGAUGAAUGACUCACC (expressed or natural sequence) [GUIDE-USH2A-FA10]”, for which, in data set [1], the “Indel efficiency (%) Cas12f1 ver3.0” value was 4.41%, the “Indel efficiency (%) Cas12f1 ver4.0” value was 1.52% and the “Indel efficiency (%) Cas12f1 ver4.1” value stood at 1.89%.
In the case of “UGUCUCGUCUAUCUUGAAUG (expressed or natural sequence) [GUIDE-USH2A-F02]”, in data set [1], the “Indel efficiency (%) Cas12f1 ver3.0” value came to 1%, the “Indel efficiency (%) Cas12f1 ver4.0” value came to 0.23% and the “Indel efficiency (%) Cas12f1 ver4.1” value amounted to 0.03%.
Consider “UAGACCCAUAUAACUCAGAG (expressed or natural sequence) [GUIDE-USH2A-R18]”, for which the “Indel efficiency (%) Cas12f1 ver3.0” value in data set [1] is 0.46%.

B1: MS2/MS3/MS4/MS5: engineered sgRNA, SEQ ID NO: 317 (nucleic acid)
guide: ACCGCUUCACUUAGAGUGAAGGUGGGCUGCUUGCAUCAGCCUAAUGUCGAGAAGUGCUUUCUUCGGAAAGUAACCCUCGAAACAAAGAAAGGAAUGCAACNNNNNNNNNNNNNNNNNNNNUUUUAUUUUUU
modifications: Engineered sgRNA with modification of MS2/MS3/MS4/MS5; misc_feature 99..118 n is a, c, g or u
Take B1: the “indel efficiency, scaffold versions compared” value in data set [1] (target sequences located in the F region) is given as “higher indel efficiency than ver4.0”.

B2: MS2/MS3/MS4: engineered sgRNA, SEQ ID NO: 316 (nucleic acid)
guide: ACCGCUUCACCAAAAGCUGUCCCUUAGGGGAUUAGAACUUGAGUGAAGGUGGGCUGCUUGCAUCAGCCUAAUGUCGAGAAGUGCUUUCUUCGGAAAGUAACCCUCGAAACAAAGAAAGGAAUGCAACNNNNNNNNNNNNNNNNNNNNUUUUAUUUUUU
modifications: Engineered sgRNA with modification of MS2/MS3/MS4; misc_feature 128..147 n is a, c, g or u
For B2, the “indel efficiency of cassette compared with Cas12f1 ver3.0 cassette” value in data set [1] (USH2A F and R region guide sequences) was “improved in most samples”. In addition, in data set [1] (target sequences located in the R region), the “indel efficiency, scaffold versions compared” value is “higher indel efficiency than ver4.1”.

(Values after patent US20250222136A1, “GENE EDITING SYSTEM FOR TREATING USHER SYNDROME” (GenKOre, Inc., priority 2022, published 2025).)
